We go through 17 compounds from ChEMBL document CHEMBL4665713, “Synthesis and biological evaluation of novel quinazoline-triazole hybrid compounds with potential use in Alzheimer's disease” (Bioorg Med Chem Lett, 2020).

Test [1] addresses T1, Acetylcholinesterase (Rattus norvegicus, UniProt P37136).
T1 sequence (P37136 whole entry): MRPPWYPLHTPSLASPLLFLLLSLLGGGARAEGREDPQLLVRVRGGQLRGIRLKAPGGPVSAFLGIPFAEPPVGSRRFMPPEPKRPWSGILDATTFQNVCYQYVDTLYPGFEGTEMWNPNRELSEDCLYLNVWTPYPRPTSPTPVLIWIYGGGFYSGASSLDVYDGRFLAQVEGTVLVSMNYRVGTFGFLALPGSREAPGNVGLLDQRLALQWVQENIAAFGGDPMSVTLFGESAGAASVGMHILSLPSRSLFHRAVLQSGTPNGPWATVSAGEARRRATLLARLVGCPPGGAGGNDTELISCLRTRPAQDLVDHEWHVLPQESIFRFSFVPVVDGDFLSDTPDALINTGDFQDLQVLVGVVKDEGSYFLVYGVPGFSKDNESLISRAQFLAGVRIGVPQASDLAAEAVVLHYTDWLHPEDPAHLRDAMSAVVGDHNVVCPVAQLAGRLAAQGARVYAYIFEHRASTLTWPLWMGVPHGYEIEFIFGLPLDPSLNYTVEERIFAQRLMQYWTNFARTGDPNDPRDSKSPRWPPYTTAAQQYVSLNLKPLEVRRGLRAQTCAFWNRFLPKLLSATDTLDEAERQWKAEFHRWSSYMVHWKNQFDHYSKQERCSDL
As to the kind of experiment: Inhibition of AChE in rat brain using acetylthiocholine iodide as substrate by Ellman's UV-vis spectrophotometric method. Format: tissue-based. In general terms: In Ellman's method for cholinesterases, released thiocholine reacts with DTNB.

Test [2] is described as follows: Cytotoxicity against human Lu1 cells assessed as reduction in cell viability by MTT assay. Format: functional, cell-based. For orientation: Tetrazolium dyes change colour on reduction, which living cells bring about.
Test [3] in a line: Cytotoxicity against human KB-CCL-17 cells assessed as reduction in cell viability by MTT assay. Format: functional, cell-based.
Test [4] deals with HepG2. The experiment in a line: Cytotoxicity against human HepG2 cells assessed as reduction in cell viability by MTT assay. Format: functional, cell-based.
Test [5] concerns the target Acetylcholinesterase (Electrophorus electricus, UniProt O42275). As to the kind of experiment: Inhibition of electric eel AChE using acetylthiocholine iodide as substrate preincubated with enzyme for 10 mins prior to substrate addition and measured for 6 mins by Ellman's method.

Chain of Acetylcholinesterase (Electrophorus electricus, UniProt O42275) (O42275 whole entry): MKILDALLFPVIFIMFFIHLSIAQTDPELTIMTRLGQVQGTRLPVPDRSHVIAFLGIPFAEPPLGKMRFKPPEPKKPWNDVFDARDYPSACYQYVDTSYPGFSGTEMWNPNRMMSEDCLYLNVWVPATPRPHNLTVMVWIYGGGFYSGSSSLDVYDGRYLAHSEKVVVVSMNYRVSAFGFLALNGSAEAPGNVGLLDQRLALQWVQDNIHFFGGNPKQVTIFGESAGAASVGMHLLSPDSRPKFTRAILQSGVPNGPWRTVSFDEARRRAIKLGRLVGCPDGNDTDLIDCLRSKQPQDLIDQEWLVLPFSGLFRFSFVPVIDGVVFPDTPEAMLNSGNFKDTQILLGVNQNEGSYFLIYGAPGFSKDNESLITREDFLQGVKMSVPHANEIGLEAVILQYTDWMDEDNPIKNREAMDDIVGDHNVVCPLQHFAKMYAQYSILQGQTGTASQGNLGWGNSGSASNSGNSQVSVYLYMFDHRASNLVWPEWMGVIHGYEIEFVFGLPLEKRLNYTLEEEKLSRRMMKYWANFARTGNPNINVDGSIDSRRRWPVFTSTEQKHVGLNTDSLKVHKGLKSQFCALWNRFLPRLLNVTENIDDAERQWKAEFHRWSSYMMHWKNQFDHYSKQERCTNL

By IC50 is commonly meant the point on the concentration scale where inhibition reaches its midpoint. In turn, `CN1CCN(c2ncnc3ccc(OCc4cn(-c5ccc([N+](=O)[O-])cc5)nn4)cc23)CC1` had an IC50 in test [1] of more than 200 µM.
Regarding `O=[N+]([O-])c1cccc(-n2cc(COc3ccc4ncnc(NCc5ccccc5)c4c3)nn2)c1`, the 50% inhibitory concentration (IC50) in test [1] was 1.1 µM; in test [2], more than 200 µM; in test [3], more than 200 µM; in test [4] it was 94.1 µM.
With `O=[N+]([O-])c1cccc(Nc2ncnc3ccc(OCc4cn(-c5cccc([N+](=O)[O-])c5)nn4)cc23)c1`, the half-maximal inhibitory concentration (IC50) in test [1] was more than 200 µM.
Turning to `O=[N+]([O-])c1cccc(Nc2ncnc3ccc(OCc4cn(-c5ccccc5[N+](=O)[O-])nn4)cc23)c1`, the IC50 in test [1] was 2.06 µM; in test [2], more than 200 µM; in test [3], more than 200 µM; in test [4], more than 200 µM.
Regarding `C#CCOc1ccc2ncnc(N3CCN(C)CC3)c2c1`, the half-maximal inhibitory concentration (IC50) in test [1] is 83.9 µM; in test [2], more than 200 µM; in test [3], more than 200 µM; in test [4] it was more than 200 µM.
Consider `CN1CCN(c2ncnc3ccc(OCc4cn(-c5ccccc5[N+](=O)[O-])nn4)cc23)CC1`, for which the IC50 is 37.4 µM in test [1], more than 200 µM in test [2], more than 200 µM in test [3] and 142 µM in test [4].
As for `O=[N+]([O-])c1ccc(-n2cc(COc3ccc4ncnc(NCc5ccccc5)c4c3)nn2)cc1`, the IC50 in test [1] was more than 200 µM.
`N#Cc1cc(-n2cc(COc3ccc4ncnc(Nc5cccc([N+](=O)[O-])c5)c4c3)nn2)ccc1C(F)(F)F` came in with an IC50 in test [1] of more than 200 µM.
`Cc1ccc(Cn2cc(Oc3ccc4cc(C(=O)NC5CCN(Cc6ccccc6)CC5)c(=O)oc4c3)nn2)cc1C` registered an IC50 in test [5] of 1.8 µM.
In the case of `Cc1c2ccncc2c(C)c2c1[nH]c1ccccc12` [ELLIPTECINE], the half-inhibitory concentration (IC50) amounted to 1.3 µM in test [2], 1.1 µM in test [3] and 0.85 µM in test [4].
For `CN1CCN(c2ncnc3ccc(OCc4cn(-c5cccc([N+](=O)[O-])c5)nn4)cc23)CC1`, the IC50 in test [1] is 15.8 µM; in test [2], more than 200 µM; in test [3], more than 200 µM; in test [4] it was more than 200 µM.
Turning to `C#CCOc1ccc2ncnc(Nc3cccc([N+](=O)[O-])c3)c2c1`, in test [1], the IC50 is more than 200 µM.
As to `N#Cc1cc(-n2cc(COc3ccc4ncnc(NCc5ccccc5)c4c3)nn2)ccc1C(F)(F)F`, in test [1], the half-maximal inhibitory concentration (IC50) is more than 200 µM.
In test [1], `CN1CCN(c2ncnc3ccc(OCc4cn(-c5ccc(C(F)(F)F)c(C#N)c5)nn4)cc23)CC1` showed an IC50 of more than 200 µM.
For the compound `C#CCOc1ccc2ncnc(NCc3ccccc3)c2c1`, the half-inhibitory concentration (IC50) in test [1] was 47.7 µM; in test [2], more than 200 µM; in test [3], 59.7 µM; in test [4] it was more than 200 µM.
As to `O=[N+]([O-])c1ccc(-n2cc(COc3ccc4ncnc(Nc5cccc([N+](=O)[O-])c5)c4c3)nn2)cc1`, the IC50 in test [1] was more than 200 µM.
On to `O=[N+]([O-])c1ccccc1-n1cc(COc2ccc3ncnc(NCc4ccccc4)c3c2)nn1`, for which the IC50 in test [1] was 0.23 µM; in test [2], more than 200 µM; in test [3] it was 42.7 µM; in test [4], more than 200 µM.
